Counter-ions that a name gives are not always drawn.

In assay [1] the target is T1, Recombinant human SHP2 full-length protein (Homo sapiens, UniProt Q06124).
T1 construct: Recombinant human SHP2 full-length protein
T1 sequence (Q06124 1-593): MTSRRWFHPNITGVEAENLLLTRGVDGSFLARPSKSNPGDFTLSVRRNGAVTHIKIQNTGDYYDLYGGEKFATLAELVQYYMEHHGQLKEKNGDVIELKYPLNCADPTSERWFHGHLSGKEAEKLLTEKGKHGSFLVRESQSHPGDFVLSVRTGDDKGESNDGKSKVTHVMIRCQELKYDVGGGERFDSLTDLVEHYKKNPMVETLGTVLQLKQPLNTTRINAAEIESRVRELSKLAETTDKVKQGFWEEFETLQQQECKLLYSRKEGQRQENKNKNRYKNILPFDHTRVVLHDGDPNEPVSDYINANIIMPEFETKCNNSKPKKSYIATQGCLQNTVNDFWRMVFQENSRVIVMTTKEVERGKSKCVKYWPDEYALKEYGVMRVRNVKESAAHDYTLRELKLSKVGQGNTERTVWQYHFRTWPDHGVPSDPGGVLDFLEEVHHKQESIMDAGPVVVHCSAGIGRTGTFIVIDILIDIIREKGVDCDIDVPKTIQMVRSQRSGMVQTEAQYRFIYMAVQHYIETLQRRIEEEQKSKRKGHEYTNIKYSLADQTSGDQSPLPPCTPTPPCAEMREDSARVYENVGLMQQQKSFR
The assay can be described thus: SHP2 activity inhibition measurement (fluorescence detection, surrogate substrate DiFMUP). The format is biochemical. The following applies: recombinant human SHP2 full-length protein activated with diphosphopeptide. The method, then: SHP2 activity inhibition measurement
The effect of the compound of the present invention on SHP2 activity is evaluated by rapid fluorescence detection method using the surrogate substrate DiFMUP.
(§1) The experimental method is outlined as follows:
Recombinant human SHP2 full-length protein was expressed and purified by the protein purification and identification platform of Tsinghua University; diphosphopeptide (H2N-LN(pY)IDLDLV-(dPEG8)LST(pY)ASINFQK-amide) was synthesized by Nanjing GenScript Biotechnology Co., Ltd.; surrogate substrate DiFMUP was purchased from Thermo Fisher Scientific (Cat. No. D6567); reaction buffer contained the following components: 60 mM HEPES (pH 7.2), 75 mM NaCl, 75 mM KCl, 1 mM EDTA, 0.05% TWEEN 20, and 5 mM DTT.
The compound was dissolved in DMSO (Sigma, Cat. No. D5879) and diluted to 100 μM. The resulting solution was serially diluted 4-fold with DMSO to a minimum concentration of 6.1 nM, and each concentration point was diluted 25-fold with the reaction buffer.
10 μL of compound solution and 10 μL of 0.25 nM SHP2 protein solution were added to a 384-well microplate (Corning, Cat. No. 3575), mixed well, and incubated at room temperature for 30 min. 10 μL of 0.5 μM diphosphopeptide (dissolved in the reaction buffer) was added, mixed well, and incubated at room temperature for 30 to 60 min. Subsequently, 10 μL of 60 μM DiFMUP solution (dissolved in the reaction buffer) was added, mixed well, and let stand at room temperature. After 30 min, fluorescence signals were measured at 340 nm (excitation wavelength)/450 nm (emission wavelength) using a microplate reader (EnSpire, Perkin Elmer). The fluorescence intensity value was positively correlated with the degree of dephosphorylation of the substrate, thereby reflecting the catalytic activity of SHP2. […] An inhibition curve of the compound was plotted by XLfit software and the inhibitory IC50 was calculated.

The subject of assay [2] is human non-small cell lung cancer cell line NCI-H358. The assay can be described thus: NCI-H358 cell proliferation inhibition (luminescent cell viability assay, CTG). Format: cell-based. The conditions noted are these: 120 h, NCI-H358 cells, 5 days, CellTiter-Glo. The method, then:
Determination of NCI-H358 cell proliferation inhibition
The effect of the compound of the present invention on proliferation of human non-small cell lung cancer cell line NCI-H358 is evaluated by luminescent cell viability assay.
as §1
The compound was dissolved in DMSO (Sigma, Cat. No. D5879) and diluted to 5 mM. The resulting solution was serially diluted 4-fold with DMSO to a minimum concentration of […], and each concentration point was diluted 50-fold with RPMI 1640 Medium (Thermo Fisher Scientific, Cat. No. 11995073). When the IC50 value of the compound was low, the initial concentration of the compound was further reduced.
NCI-H358 cells (ATCC, Cat. No. CRL-5807) were cultured in RPMI 1640 Complete Medium [RPMI 1640 Medium was supplemented with 10% FBS (GBICO, Cat. No. 10099-141) and 100 units/mL Penicillin-Streptomycin (Thermo Fisher Scientific, Cat. No. 15140122)]. The cells (15,000 cells/mL) were seeded in 90 μL of Complete Medium on a 96-well plate. After culturing overnight, 10 μL of compound solution was added to each well and cultured at 37° C. in a 5% CO2 incubator for 5 days. According to the instruction from the CellTilter-Glo (CTG) kit (Promega, Cat. No. G7572), the cell culture plate was removed from incubator and equilibrated to room temperature. The cells were lysed fully with 50 μL of CTG reagent and placed at room temperature for 10 min. A luminescence signal was read by the microplate reader (EnVision, Perkin Elmer). […] An inhibition curve of the compound was plotted by XLfit software and the inhibitory IC50 was calculated.
Background: In ATP-based viability assays light output follows the ATP content of the culture.

Turning to `Cn1c(N2CCC3(CCC[C@H]3N)CC2)ncc(Sc2ccn3nccc3c2)c1=O` [Compound 5, (R)-2-(1-amino-8-azaspiro[4.5]decan-8-yl)-3-methyl-5-(pyrazolo[1,5-a]pyridin-5-ylthio)pyrimidin-4(3H)-one hydrochloride], the IC50 in assay [1] was 801 nM. Same read-out and setting: under `Cn1c(N2CCC3(CCC[C@H]3N)CC2)ncc(Sc2ccc3[nH]ncc3c2)c1=O` [Compound 6, (R)-5-((1H-indazole-5-yl)thio)-2-(1-amino-8-azaspiro[4.5]decan-8-yl)-3-methylpyrimidin-4(3H)-one hydrochloride] stands 877 nM. On to `C[C@@H]1OCC2(CCN(c3ncc(Sc4ccn5nccc5c4Cl)c(=O)n3C)CC2)[C@@H]1N` [Compound 12, 2-((3S,4S)-4-amino-3-methyl-2-oxa-8-azaspiro[4.5]decan-8-yl)-5-((4-chloropyrazolo[1,5-a]pyridin-5-yl)thio)-3-methylpyrimidin-4(3H)-one formate], for which the figures for the IC50 in assay [1] and in assay [2] were 3.1 nM and 264 nM, respectively. The matching figures for `C[C@@H]1OCC2(CCN(c3nc(N)c(Sc4ccc5nn(C)cc5c4Cl)c(=O)n3C)CC2)[C@@H]1N` [Compound 14, 6-Amino-2-((3S,4S)-4-amino-3-methyl-2-oxa-8-azaspiro[4.5]decan-8-yl)-5-((4-chloro-2-methyl-2H-indazole-5-yl)thio)-3-methylpyrimidin-4(3H)-one formate]: 2.5 nM and 108 nM.

With `C[C@@H]1OCC2(CCN(c3ncc(Sc4ccnc5[nH]ccc45)c(=O)n3C)CC2)[C@@H]1N` [Compound 18, 5-((1H-pyrrolo[2,3-b]pyridin-4-yl)thio)-2-((3S,4S)-4-amino-3-methyl-2-oxa-8-azaspiro[4.5]decan-8-yl)-3-methylpyrimidin-4(3H)-one formate], the results for the IC50 in assay [1] and in assay [2] were 5.5 nM and 335 nM, respectively.

For the compound `C[C@@H]1OCC2(CCN(c3ncc(Sc4ccc5nn(C)cc5c4Cl)c(=O)n3C)CC2)[C@@H]1N` [Compound 11, 2-((3S,4S)-4-amino-3-methyl-2-oxa-8-azaspiro[4.5]decan-8-yl)-5-((4-chloro-2-methyl-2H-indazole-5-yl)thio)-3-methylpyrimidin-4(3H)-one formate], the IC50 in assay [1] was 4 nM; in assay [2] it was 165 nM. As for `C[C@@H]1OCC2(CCN(c3ncc(Sc4ccnc5c4ccn5C)c(=O)n3C)CC2)[C@@H]1N` [Compound 17, 2-((3S,4S)-4-amino-3-methyl-2-oxa-8-azaspiro[4.5]decan-8-yl)-3-methyl-5-((1-methyl-1H-pyrrolo[2,3-b]pyridin-4-yl)thio)pyrimidin-4(3H)-one formate], the IC50 in assay [1] amounted to 14 nM; in assay [2], 540 nM.

Take `Cn1nc2ccc(Sc3cnc(N4CCC5(CCC[C@H]5N)CC4)n(C)c3=O)c(Cl)c2c1C#N` [Compound 9, (R)-5-((2-(1-amino-8-azaspiro[4.5]decan-8-yl)-1-methyl-6-oxo-1,6-dihydropyrimidin-5-yl)thio)-4-chloro-2-methyl-2H-indazole-3-carbonitrile formate]: the results for the IC50 in assay [1] and in assay [2] were 8.8 nM and 1340 nM, respectively. For `Cn1c(N2CCC3(CCC[C@H]3N)CC2)ncc(Sc2cccc3[nH]ncc23)c1=O` [Compound 3, (R)-5-((1H-indazole-4-yl)thio)-2-(1-amino-8-azaspiro[4.5]decan-8-yl)-3-methylpyrimidin-4(3H)-one hydrochloride] the same measures were 20 nM and 434 nM. The matching figures for `Cn1c(N2CCC3(CCC[C@H]3N)CC2)ncc(Sc2ccnc3c2ccn3C)c1=O` [Compound 2, (R)-2-(1-amino-8-azaspiro[4.5]decan-8-yl)-3-methyl-5-((1-methyl-1H-pyrrolo[2,3-b]pyridin-4-yl)thio)pyrimidin-4(3H)-one formate]: 20 nM and 383 nM.

In the case of `Cn1c(N2CCC3(CCC[C@H]3N)CC2)ncc(Sc2ccn3nccc3c2Cl)c1=O` [Compound 8, (R)-2-(1-amino-8-azaspiro[4.5]decan-8-yl)-5-((4-chloropyrazolo[1,5-a]pyridin-5-yl)thio)-3-methylpyrimidin-4(3H)-one formate], the IC50 in assay [1] came out at 8.6 nM; in assay [2] it was 309 nM. For `[2H]C([2H])([2H])n1c(N2CCC3(CC2)CO[C@@H](C)[C@H]3N)ncc(Sc2ccc3nn(C)cc3c2Cl)c1=O` [Compound 19, 2-((3S,4S)-4-amino-3-methyl-2-oxa-8-azaspiro[4.5]decan-8-yl)-5-((4-chloro-2-methyl-2H-indazole-5-yl)thio)-3-(methyl-d3)pyrimidin-4(3H)-one], the IC50 in assay [1] amounted to 11 nM; in assay [2], 222 nM. For `C[C@@H]1OCC2(CCN(c3nc(N)c(Sc4ccn5nccc5c4Cl)c(=O)n3C)CC2)[C@@H]1N` [Compound 15, 6-Amino-2-((3S,4S)-4-amino-3-methyl-2-oxa-8-azaspiro[4.5]decan-8-yl)-5-((4-chloropyrazolo[1,5-a]pyridine-5-yl)thio)-3-methylpyrimidin-4(3H)-one formate] the same measures were 2.7 nM and 342 nM. Take `Cn1cc2c(Cl)c(Sc3cnc(N4CCC5(CC4)COC[C@H]5N)n(C)c3=O)ccc2n1` [Compound 10, (S)-2-(4-amino-2-oxa-8-azaspiro[4.5]decan-8-yl)-5-((4-chloro-2-methyl-2H-indazole-5-yl)thio)-3-methylpyrimidin-4(3H)-one]: the figures for the IC50 in assay [1] and in assay [2] were 36 nM and 1760 nM, respectively. `Cn1c(N2CCC3(CCC[C@H]3N)CC2)nc(N)c(Sc2cccc3[nH]ncc23)c1=O` [Compound 13, (R)-5-((1H-indazole-4-yl)thio)-6-amino-2-(1-amino-8-azaspiro[4.5]decan-8-yl)-3-m ethylpyrimidin-4(3H)-one formate]: the IC50 in assay [1] stood at 8.7 nM.

With `Cn1c(N2CCC3(CCC[C@H]3N)CC2)ncc(Sc2ccnc3[nH]ccc23)c1=O` [Compound 1, (R)-5-((1H-pyrrolo[2,3-b]pyridin-4-yl)thio)-2-(1-amino-8-azaspiro[4.5]decan-8-yl)-3-methylpyrimidin-4(3H)-one hydrochloride], the IC50 in assay [1] turned out to be 23 nM; in assay [2], 310 nM.

`Cn1cc2c(Cl)c(Sc3cnc(N4CCC(C)(CN)CC4)n(C)c3=O)ccc2n1` [Compound 16, 2-(4-(Aminomethyl)-4-methylpiperidin-1-yl)-5-((4-chloro-2-methyl-2H-indazole-5-yl)thio)-3-methylpyrimidin-4(3H)-one formate]: the IC50 in assay [1] was determined as 56 nM. In the case of `Cn1c(N2CCC3(CCC[C@H]3N)CC2)ncc(Sc2cccn3nccc23)c1=O` [Compound 4, (R)-2-(1-amino-8-azaspiro[4.5]decan-8-yl)-3-methyl-5-(pyrazolo[1,5-a]pyridin-4-ylthio)pyrimidin-4(3H)-one formate], the values for the IC50 in assay [1] and in assay [2] were 126 nM and 2360 nM, respectively.

By IC50 is commonly meant the concentration at which inhibition is half-maximal.

For the origin of these results see patent US20230219946A1, “PYRIMIDIN-4(3H)-ONE HETEROCYCLIC COMPOUND, PREPARATION METHOD THEREOF, AND PHARMACEUTICAL USE THEREOF” (Beijing Innocare Pharma Tech Co., Ltd., priority 2020, published 2023).
